These compounds were tested against T1, Cannabinoid receptor 1 (Homo sapiens, UniProt P21554) (assay: Agonist activity at human CB1 receptor expressed in CHO cells assessed as inhibition of forskolin-stimulated intracellular cAMP accumulation measured after 30 mins by Glosensor assay). Conditions: not given.
T1 sequence (P21554 whole entry): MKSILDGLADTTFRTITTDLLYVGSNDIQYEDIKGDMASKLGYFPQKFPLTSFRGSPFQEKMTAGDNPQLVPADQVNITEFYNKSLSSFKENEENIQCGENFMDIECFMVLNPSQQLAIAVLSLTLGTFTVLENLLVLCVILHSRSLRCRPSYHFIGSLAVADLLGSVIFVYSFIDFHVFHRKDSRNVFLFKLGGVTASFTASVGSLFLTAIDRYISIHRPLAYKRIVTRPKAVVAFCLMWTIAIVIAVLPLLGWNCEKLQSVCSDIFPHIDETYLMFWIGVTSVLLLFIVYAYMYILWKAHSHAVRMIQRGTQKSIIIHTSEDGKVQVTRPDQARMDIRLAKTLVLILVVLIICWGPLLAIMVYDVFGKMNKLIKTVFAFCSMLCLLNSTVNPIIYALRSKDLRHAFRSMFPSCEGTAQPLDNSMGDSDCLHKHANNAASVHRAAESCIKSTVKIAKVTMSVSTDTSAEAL
Format: cell-based
In the case of `O=C1CC(c2nc(-c3ccc(F)c4cn[nH]c34)no2)CCCN1c1cccc(F)c1` (stereo not drawn), the EC50 is reported as > 10 µM. `O=C1CC(c2nc(-c3ccc(F)cn3)no2)CCCN1c1ccc(F)cc1` (stereo not drawn) was tested, and the EC50 was > 10 µM. For `O=C(NCCc1nc(-c2ccccc2)no1)c1ccc(F)cc1`, the EC50 was > 10 µM. With `O=C1CC(c2nc(-c3cccc(F)c3)no2)CCCN1c1ccc(F)cc1` (stereo not drawn) the EC50 was > 10 µM. `O=C(c1ccc(F)cc1)N1CCC(c2nc(-c3ccccc3)no2)CC1` was tested, and the EC50 was > 10 µM. `CC(=O)c1ccc(N2CCCC(c3nc(-c4ccc(F)c5cn[nH]c45)no3)CC2=O)cc1` (stereo not drawn) was tested, and the EC50 was > 10 µM. For `O=C1CC(c2nc(-c3ccccc3)no2)CCN1c1ccc(F)cc1` (stereo not drawn), the EC50 was > 10 µM. In the case of `O=C1CC(c2nc(-c3ccc(F)c4cn[nH]c34)no2)CCCN1c1ccc(F)cc1F` (stereo not drawn), the EC50 is reported as > 10 µM. `O=C1CC(c2nc(-c3ccccc3F)no2)CCCN1c1ccc(F)cc1` (stereo not drawn) was tested, and the EC50 was > 10 µM. In the case of `O=C1CC(c2nc(-c3ccc(F)c4cn[nH]c34)no2)CCCN1c1ccccc1` (stereo not drawn), the EC50 is reported as > 10 µM. `O=C1CC(c2nc(-c3ccc(F)c4cn[nH]c34)no2)CCCN1c1cccc(F)c1F` (stereo not drawn) was tested, and the EC50 was > 10 µM. With `O=C1CC(c2nc(-c3ccc(F)cc3C(F)(F)F)no2)CCCN1c1ccc(F)cc1` (stereo not drawn) the EC50 was > 10 µM. In the case of `Fc1ccc(Nc2ccc(-c3nc(-c4ccccc4)no3)cc2)cc1`, the EC50 is reported as > 10 µM. For `O=C1CC(c2nc(-c3ccc(F)cc3F)no2)CCCN1c1ccc(F)cc1` (stereo not drawn), the EC50 was > 10 µM. With `O=C1CC(c2nc(-c3ccc(F)c4cn[nH]c34)no2)CCCN1c1ccc(F)c(F)c1` (stereo not drawn) the EC50 was > 10 µM. For `Cc1ccc(N2CCCC(c3nc(-c4ccc(F)c5cn[nH]c45)no3)CC2=O)cc1` (stereo not drawn), the EC50 was > 10 µM. `CN1CCCC(c2nc(-c3ccc(F)c4cn[nH]c34)no2)CC1=O` (stereo not drawn) was tested, and the EC50 was > 10 µM. `O=C1CC(c2nc(-c3ccc(F)c4cn[nH]c34)no2)CCCN1c1ccc(OC(F)(F)F)cc1` (stereo not drawn) was tested, and the EC50 was > 10 µM. `O=C1CC(c2nc(Cc3ccccc3F)no2)CCCN1c1ccc(F)cc1` (stereo not drawn) was tested, and the EC50 was > 10 µM. In the case of `O=C1CC(c2nc(-c3ccccc3)no2)CCCN1c1ccc(F)cc1` (stereo not drawn), the EC50 is reported as > 30 µM.

Organism: Homo sapiens
Assay: Selectivity ratio of EC50 for agonist activity at human CB1 receptor expressed in CHO cells to EC50 for agonist activity at human CB2 receptor expressed in CHO cells
Format: cell-based
Conditions: not given
For `O=C1CC(c2nc(-c3ccccc3)no2)CCCN1c1ccc(F)cc1` (stereo not drawn), the Ratio EC50 was > 10.

These compounds were tested against T2, Cannabinoid receptor 2 (Homo sapiens, UniProt P34972) (assay: Agonist activity at human CB2 receptor expressed in CHO cells assessed as inhibition of forskolin-stimulated intracellular cAMP accumulation measured after 30 mins by Glosensor assay relative to control). Conditions: filed as agonist.
T2 sequence (P34972 whole entry): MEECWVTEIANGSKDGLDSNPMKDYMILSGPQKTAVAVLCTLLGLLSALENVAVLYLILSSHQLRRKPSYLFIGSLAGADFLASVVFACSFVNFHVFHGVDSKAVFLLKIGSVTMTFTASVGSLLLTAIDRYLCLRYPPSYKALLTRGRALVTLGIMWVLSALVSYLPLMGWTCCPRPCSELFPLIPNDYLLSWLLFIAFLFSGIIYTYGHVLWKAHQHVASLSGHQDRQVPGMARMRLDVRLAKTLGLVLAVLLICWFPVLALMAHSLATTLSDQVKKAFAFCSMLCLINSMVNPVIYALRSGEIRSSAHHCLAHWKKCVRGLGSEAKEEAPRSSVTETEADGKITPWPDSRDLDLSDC
Format: functional, cell-based
With `O=C1CC(c2nc(-c3ccc(F)c4cn[nH]c34)no2)CCCN1c1cc(F)c(F)c(F)c1` (stereo not drawn) the Emax was 102%. With `O=C1CC(c2nc(-c3ccc(F)c4cn[nH]c34)no2)CCCN1c1cccc(F)c1` (stereo not drawn) the Emax was 79%. Compound `O=C1CC(c2nc(-c3cccc(F)c3)no2)CCCN1c1ccc(F)cc1` (stereo not drawn) has an Emax of 97%. With `O=C1CC(c2nc(-c3ccc(F)c4cn[nH]c34)no2)CCCN1c1ccc(F)cc1F` (stereo not drawn) the Emax was 100%. `O=C1CC(c2nc(-c3ccc(F)c4cn[nH]c34)no2)CCCN1c1ccccc1` (stereo not drawn) gave an Emax of 88%. `O=C1CC(c2nc(-c3ccc(F)c4cn[nH]c34)no2)CCCN1c1cccc(F)c1F` (stereo not drawn) showed an Emax of 92%. `O=C1CC(c2nc(-c3ccc(F)c4cn[nH]c34)no2)CCCN1c1ccc(F)c(F)c1` (stereo not drawn) gave an Emax of 81%. Compound `Cc1ccc(N2CCCC(c3nc(-c4ccc(F)c5cn[nH]c45)no3)CC2=O)cc1` (stereo not drawn) has an Emax of 82%. `O=C1CC(c2nc(-c3ccc(F)c4cn[nH]c34)no2)CCCN1c1ccc(OC(F)(F)F)cc1` (stereo not drawn) was tested, and the Emax was 74%. `O=C1CC(c2nc(-c3ccccc3)no2)CCCN1c1ccc(F)cc1` (stereo not drawn) gave an Emax of 78%.

These compounds were tested against T2, Cannabinoid receptor 2 (assay: Inverse agonist activity at human CB2 receptor expressed in CHO cells assessed as forskolin-stimulated intracellular cAMP accumulation measured after 30 mins by Glosensor assay). Conditions: not given.
Format: functional, cell-based
For `O=C(NCCc1nc(-c2ccccc2)no1)c1ccc(F)cc1`, the EC50 was > 10 µM.

These compounds were tested against T2, Cannabinoid receptor 2 (assay: Agonist activity at human CB2 receptor expressed in CHO cells assessed as inhibition of forskolin-stimulated intracellular cAMP accumulation measured after 30 mins by Glosensor assay). Conditions: not given.
Format: functional, cell-based
With `O=C1CC(c2nc(-c3ccc(F)c4cn[nH]c34)no2)CCCN1c1cc(F)c(F)c(F)c1` (stereo not drawn) the EC50 was 338 nM. Work on `O=C1CC(c2nc(-c3ccc(F)c4cn[nH]c34)no2)CCCN1c1cccc(F)c1` (stereo not drawn) yielded an EC50 of 1310 nM. With `O=C1CC(c2nc(-c3ccc(F)cn3)no2)CCCN1c1ccc(F)cc1` (stereo not drawn) the EC50 was > 10000 nM. With `O=C1CC(c2nc(-c3cccc(F)c3)no2)CCCN1c1ccc(F)cc1` (stereo not drawn) the EC50 was 2120 nM. For `O=C(c1ccc(F)cc1)N1CCC(c2nc(-c3ccccc3)no2)CC1`, the EC50 was > 10000 nM. `CC(=O)c1ccc(N2CCCC(c3nc(-c4ccc(F)c5cn[nH]c45)no3)CC2=O)cc1` (stereo not drawn) was tested, and the EC50 was > 10000 nM. For `O=C1CC(c2nc(-c3ccccc3)no2)CCN1c1ccc(F)cc1` (stereo not drawn), the EC50 was > 10000 nM. For `O=C1CC(c2nc(-c3ccc(F)c4cn[nH]c34)no2)CCCN1c1ccc(F)cc1F` (stereo not drawn), the EC50 was 110 nM. In the case of `O=C1CC(c2nc(-c3ccccc3F)no2)CCCN1c1ccc(F)cc1` (stereo not drawn), the EC50 is reported as > 10000 nM. With `O=C1CC(c2nc(-c3ccc(F)c4cn[nH]c34)no2)CCCN1c1ccccc1` (stereo not drawn) the EC50 was 300 nM. Compound `O=C1CC(c2nc(-c3ccc(F)c4cn[nH]c34)no2)CCCN1c1cccc(F)c1F` (stereo not drawn) has an EC50 of 332 nM. `O=C1CC(c2nc(-c3ccc(F)cc3C(F)(F)F)no2)CCCN1c1ccc(F)cc1` (stereo not drawn) was tested, and the EC50 was > 10000 nM. For `Fc1ccc(Nc2ccc(-c3nc(-c4ccccc4)no3)cc2)cc1`, the EC50 was > 10000 nM. `O=C1CC(c2nc(-c3ccc(F)cc3F)no2)CCCN1c1ccc(F)cc1` (stereo not drawn) was tested, and the EC50 was > 10000 nM. In the case of `O=C1CC(c2nc(-c3ccc(F)c4cn[nH]c34)no2)CCCN1c1ccc(F)c(F)c1` (stereo not drawn), the EC50 is reported as 318 nM. `Cc1ccc(N2CCCC(c3nc(-c4ccc(F)c5cn[nH]c45)no3)CC2=O)cc1` (stereo not drawn) was tested, and the EC50 was 1350 nM. For `CN1CCCC(c2nc(-c3ccc(F)c4cn[nH]c34)no2)CC1=O` (stereo not drawn), the EC50 was > 10000 nM. Work on `O=C1CC(c2nc(-c3ccc(F)c4cn[nH]c34)no2)CCCN1c1ccc(OC(F)(F)F)cc1` (stereo not drawn) yielded an EC50 of 2050 nM. For `O=C1CC(c2nc(Cc3ccccc3F)no2)CCCN1c1ccc(F)cc1` (stereo not drawn), the EC50 was > 10000 nM. With `O=C1CC(c2nc(-c3ccccc3)no2)CCCN1c1ccc(F)cc1` (stereo not drawn) the EC50 was 2810 nM.

What follows are compounds tested against T1, Cannabinoid receptor 1 (assay: Inverse agonist activity at human CB1 receptor expressed in CHO cells assessed as forskolin-stimulated intracellular cAMP accumulation measured after 30 mins by Glosensor assay). Conditions: not given.
Format: cell-based
For `O=C1CC(c2nc(-c3ccc(F)c4cn[nH]c34)no2)CCCN1c1cc(F)c(F)c(F)c1` (stereo not drawn), the EC50 was > 10 µM.

Reference: ChEMBL document CHEMBL5344413, “Discovery of 4-(1,2,4-Oxadiazol-5-yl)azepan-2-one Derivatives as a New Class of Cannabinoid Type 2 Receptor Agonists for the Treatment of Inflammatory Pain” (J Med Chem, 2023)
